According to patent US9827326B2, “Polymer-sunitinib conjugates” (Nektar Therapeutics, priority 2010, dated 2017):
Where two headings read alike, the source gives them in different places.

Test: In vitro release of conjugates in phosphate buffer (Method E)
Type: physicochemical
Method: In vitro release for conjugates in buffer: In separate containers Compound 2a (˜0.1-0.5 mg/mL), Compound 3a (˜0.5-5 mg/mL) and Compound 4a (˜0.2-1 mg/mL) were dissolved in 100 mM phosphate buffer pH 7.5 (or other pH values as indicated). The conjugates were filtered through a 0.2 micron filter into a HPLC vial. The HPLC sample vials were incubated at 37° C. and injected at various intervals on a HPLC system with C18 silica column applying an acetonitrile gradient with 0.1% TFA; retention times observed were sunitinib ˜3.5 minutes and conjugates either ˜2.2 minutes for Compound 2a or ˜10.8 minutes for Compounds 3a or 4a. Release data for the t1/2 values were obtained from the slope of the linear fit to a plot of ln(A(conjugate)/A0(conjugate)) vs. time, according to the first order rate law.
The half-lives observed for several sunitinib conjugates of the invention were determined in buffer and plasma according to the descriptions in “Method E” provided in the Experimental.

- half-life (100 mM phosphate buffer pH 7.5, 37° C., read-out: Release half-life, Phosphate pH 7.5): ~3 min
- half-life (phosphate buffer pH 6.8, 37° C., read-out: Release half-life, Phosphate pH 6.8): ~10 min
SMILES: CCN(CC)CCN(C(=O)OCC(O)CO)C(=O)c1c(C)[nH]c(/C=C2\C(=O)Nc3ccc(F)cc32)c1C (centres unmarked) [Compound 1e, (Z)-2,3-dihydroxypropyl 2-(diethylamino)ethyl(5-((5-fluoro-2-oxoindolin-3-ylidene)methyl)-2,4-dimethyl-1H-pyrrole-3-carbonyl)carbamate]
